# Experiment: Pharmacokinetic study after single dose in C57BL/6N mice
# Format: in vivo, mouse
# Procedure: Pharmacokinetic study of MI-883 in C57BL/6N mice (9–10 weeks old, body weight 20.8 to 24.5 g and average body weight across all groups 22.7 g, SD = 1.1 g) were performed following peroral (p.o.) and intraperitoneal (i.p.) administrations. […] There was also a control group of 4 animals per route. The levels of the parent compound MI-883 were determined by LC-MS/MS in the blood plasma, brain, kidney, liver, muscle (Leg triceps), bile, small intestine, colon, and adipose tissues over time after a single dose of 10 mg/kg. Mice were injected i.p. with 2,2,2-tribromoethanol at a dose of 150 mg/kg prior to drawing the blood. Blood collection was performed from the orbital sinus in BD microtainers tubes containing K2EDTA. Animals were sacrificed by cervical dislocation after the blood samples collection. After this, samples of brain, kidney, liver, muscle (Leg triceps), small intestine, colon, and adipose tissue were collected. Bile samples were taken from the gallbladder of mice. Urine and feces samples were collected using metabolic cages over the course of 1440 min (24 h) after compound administration. All samples were immediately processed, flash-frozen, and stored at –70 °C until subsequent analysis. Detection of the presence of potential metabolites (2-chloro-5-((4-(2-(4-chlorophenyl)-7-fluoroimidazo[1,2-a]pyridin-3-yl)-1H-1,2,3-triazol-1-yl)methyl)-N-methylbenzamide or 2-(4-chlorophenyl)-7-fluoro-3-(1H-1,2,3-triazol-4-yl)imidazo[1,2-a]pyridine) in plasma and tissues was performed. MI-883 was applied in 5%DMSO – 5%PEG300 – 90%corn oil formulation with a final concentration of the compound, 2 mg/ml. Animal treatment and sample preparation were conducted by the Animal Laboratory personnel at Enamine/Bienta.
# Plasma samples (50 μl) were mixed with 200 μl of IS400 solution. After mixing by pipetting and centrifuging for 4 min at 6000 rpm, 2 μl of each supernatant was injected into the LC-MS/MS system. Solution of compound IS-19851 (400 ng/ml in acetonitrile-methanol mixture 1:1, v/v) was used as internal standard (IS400) for quantification of MI-883 in blood plasma, liver, kidney, muscle (Leg triceps), small intestine, and colon samples. Liver, kidney, muscle (Leg triceps), colon, and small intestine samples (weight 100 mg ±1 mg) were disintegrated in 500 μl of IS400 using zirconium oxide beads (120 mg ± 5 mg) in The Bullet Blender® homogenizer for 1–3 min at speed 8–12. After this, the samples were centrifuged for 3 min at 14,000 rpm, and 1 μl of each supernatant was injected into the LC-MS/MS system.
# Brain and adipose tissue samples (weight 100 mg ± 1 mg) were dispersed in 500 μl of IS400(80) using zirconium oxide beads (120 mg ± 5 mg) in The Bullet Blender® homogenizer for 30 s at speed 8. After this, the samples were centrifuged for 4 min at 14,000 rpm, and 1 μl of each supernatant was injected into the LC-MS/MS system. Solution of compound IS-19851 (400 ng/ml in water-acetonitrile-methanol mixture, 2:4:4, v/v/v) was used as internal standard (IS400(80)) for quantification of MI-883 in the brain, adipose tissue, urine, and bile samples. Urine (cumulative) and bile samples were mixed with IS400(80) solution (1:20, v/v). After mixing by pipetting and centrifuging for 4 min at 6000 rpm, 0.5 μl of each supernatant was injected into the LC-MS/MS system. Cumulative feces samples (114 mg–249 mg) were transferred to BMT-20-S tubes with 4 stainless steel balls, mixed with 20 volumes of IS400(80) solution, and dispersed using ULTRA-TURRAX Tube Drive for 1 min at 3000 rpm within the 30 min thrice. After dispersing and centrifuging for 2 min at 14,000 rpm, 0.5 μl of each supernatant was injected into the LC-MS/MS system.
# The concentration of MI-883 in plasma and tissues was determined using a high-performance liquid chromatography/tandem mass spectrometry (HPLC-MS/MS) method. […]
# [1] = male, C57BL/6N, mouse, po, Liver, 10 mg/kg
# [2] = male, C57BL/6N, mouse, po, Plasma, 10 mg/kg
structure (smiles),measurement,setting,value
"NC(=O)c1cc(Cn2cc(-c3c(-c4ccc(Cl)cc4)nc4cc(F)ccn34)nn2)ccc1Cl [MI-883, 2-chloro-5-((4-(2-(4-chlorophenyl)-7-fluoroimidazo[1,2-a]pyridin-3-yl)-1H-1,2,3-triazol-1-yl)methyl)benzamide]",Tmax,[1],30 min
same,half-life,[1],211 min
same,Cmax,[2],9290 ng/mL
same,Tmax,[2],30 min
same,half-life,[2],170 min
same,Tmax,"male, mouse, ip, Plasma, 10 mg/kg, C57BL/6N mice",30 min
same,PK of MI-883: MI-883 p.o. adipose tis.,"p.o., time 10",211
same,PK of MI-883: MI-883 p.o. adipose tis.,"p.o., time 120",5811
same,PK of MI-883: MI-883 p.o. adipose tis.,"p.o., time 240",980
same,PK of MI-883: MI-883 p.o. adipose tis.,"p.o., time 480",1023
same,PK of MI-883: MI-883 p.o. adipose tis.,"p.o., time 720",1016
same,PK of MI-883: MI-883 p.o. adipose tis.,"p.o., time 1440",8
same,PK of MI-883: MI-883 p.o. bile,"p.o., time 10",560
same,PK of MI-883: MI-883 p.o. bile,"p.o., time 120",5663
same,PK of MI-883: MI-883 p.o. bile,"p.o., time 240",9638
same,PK of MI-883: MI-883 p.o. bile,"p.o., time 480",9739
same,PK of MI-883: MI-883 p.o. bile,"p.o., time 720",23456
same,PK of MI-883: MI-883 p.o. bile,"p.o., time 1440",192
same,PK of MI-883: MI-883 p.o. brain,"p.o., time 10",8
same,PK of MI-883: MI-883 p.o. brain,"p.o., time 120",300
same,PK of MI-883: MI-883 p.o. brain,"p.o., time 240",45
same,PK of MI-883: MI-883 p.o. brain,"p.o., time 720",55
same,PK of MI-883: MI-883 p.o. colon,"p.o., time 10",2929
same,PK of MI-883: MI-883 p.o. colon,"p.o., time 120",4345
same,PK of MI-883: MI-883 p.o. colon,"p.o., time 240",1191
same,PK of MI-883: MI-883 p.o. colon,"p.o., time 480",1428
same,PK of MI-883: MI-883 p.o. colon,"p.o., time 720",1386
same,PK of MI-883: MI-883 p.o. colon,"p.o., time 1440",15
same,PK of MI-883: MI-883 p.o. feces,"p.o., feces, time 1440",174 ng
same,PK of MI-883: MI-883 p.o. kidney,"p.o., time 10",573
same,PK of MI-883: MI-883 p.o. kidney,"p.o., time 120",9000
same,PK of MI-883: MI-883 p.o. kidney,"p.o., time 240",2409
same,PK of MI-883: MI-883 p.o. kidney,"p.o., time 480",2347
same,PK of MI-883: MI-883 p.o. kidney,"p.o., time 720",2408
same,PK of MI-883: MI-883 p.o. kidney,"p.o., time 1440",40
same,PK of MI-883: MI-883 p.o. liver,"p.o., time 10",1972
same,PK of MI-883: MI-883 p.o. liver,"p.o., time 120",14919
same,PK of MI-883: MI-883 p.o. liver,"p.o., time 240",5297
same,PK of MI-883: MI-883 p.o. liver,"p.o., time 480",5137
same,PK of MI-883: MI-883 p.o. liver,"p.o., time 720",5549
same,PK of MI-883: MI-883 p.o. liver,"p.o., time 1440",102
same,PK of MI-883: MI-883 p.o. muscule,"p.o., time 10",98
same,PK of MI-883: MI-883 p.o. muscule,"p.o., time 120",2725
same,PK of MI-883: MI-883 p.o. muscule,"p.o., time 240",421
same,PK of MI-883: MI-883 p.o. muscule,"p.o., time 480",488
same,PK of MI-883: MI-883 p.o. muscule,"p.o., time 720",543
same,PK of MI-883: MI-883 p.o. small int.,"p.o., time 10",5277
same,PK of MI-883: MI-883 p.o. small int.,"p.o., time 120",9143
same,PK of MI-883: MI-883 p.o. small int.,"p.o., time 240",2579
same,PK of MI-883: MI-883 p.o. small int.,"p.o., time 480",1398
same,PK of MI-883: MI-883 p.o. small int.,"p.o., time 720",2156
same,PK of MI-883: MI-883 p.o. small int.,"p.o., time 1440",21
same,PK of MI-883: MI-883 p.o.,"p.o., time 10",440
same,PK of MI-883: MI-883 p.o.,"p.o., time 120",9288
same,PK of MI-883: MI-883 p.o.,"p.o., time 240",1645
same,PK of MI-883: MI-883 p.o.,"p.o., time 480",1502
same,PK of MI-883: MI-883 p.o.,"p.o., time 720",1788
same,PK of MI-883: MI-883 p.o.,"p.o., time 1440",15
same,time with liver concentration above 1000 ng/g,single dose of 10 mg/kg,more than 18 hours
same,concentration in the liver lysate,"single dose of 10 mg/kg p.o., male C57BL/6N mice",greater than 1000 ng/g

# Reference: paper PMC11802874, “The hypolipidemic effect of MI-883, the combined CAR agonist/ PXR antagonist, in diet-induced hypercholesterolemia model” (Nature Communications, 2025)
